The target in data set [1] is T1, Glutamine synthetase (GS) (Mus musculus, UniProt P15105).
T1 construct: gene Glul; pET-24a(+) plasmid pNG189, codon optimised; E. coli BL21(DE3); HisTrap and Superdex 200; homomeric decamer
As to the kind of experiment: thermal shift (SyproOrange differential scanning fluorimetry). In kind it is binding. Conditions: varying MgCl2 and ATP; HEPES pH 7.5, 300 mM NaCl, 10% glycerol, 500 μM TCEP.

The target of data set [2] is T1, Glutamine synthetase (GS). As to the kind of experiment: gamma-glutamyl hydroxamate assay, absorbance […] nm. Format: biochemical.
Data set [3] deals with T2, Glutamine synthetase (GS) (Mus musculus, UniProt P15105, T301V).
T2 construct: gene Glul; pET-24a(+) plasmid pNG189, codon optimised; E. coli BL21(DE3); HisTrap and Superdex 200; homomeric decamer
T2 sequence (P15105 2-373 T301V): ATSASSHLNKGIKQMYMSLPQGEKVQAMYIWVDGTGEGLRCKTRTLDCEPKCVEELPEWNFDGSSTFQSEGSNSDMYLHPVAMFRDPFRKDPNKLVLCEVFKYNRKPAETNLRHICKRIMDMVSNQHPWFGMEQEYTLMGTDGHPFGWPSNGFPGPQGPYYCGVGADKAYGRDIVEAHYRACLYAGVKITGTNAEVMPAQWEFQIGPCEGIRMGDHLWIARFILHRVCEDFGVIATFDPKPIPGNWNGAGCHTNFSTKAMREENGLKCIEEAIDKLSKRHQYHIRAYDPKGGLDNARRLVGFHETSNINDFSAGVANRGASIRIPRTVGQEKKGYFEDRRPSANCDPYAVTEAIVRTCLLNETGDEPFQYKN
As to the kind of experiment: gamma-glutamyl hydroxamate assay, absorbance […] nm. In kind it is biochemical.

Data set [4] deals with T3, Glutamine synthetase (GS) (Mus musculus, UniProt P15105, T301A).
T3 construct: gene Glul; pET-24a(+) plasmid pNG189, codon optimised; E. coli BL21(DE3); HisTrap and Superdex 200; homomeric decamer
T3 sequence (P15105 2-373 T301A): as the sequence (P15105 2-373 T301V) above, with V300A counted along it
As to the kind of experiment: gamma-glutamyl hydroxamate assay, absorbance […] nm. Format: biochemical.

In data set [5] the target is T4, Glutamine synthetase (GS) (Mus musculus, UniProt P15105, T301E).
T4 construct: gene Glul; pET-24a(+) plasmid pNG189, codon optimised; E. coli BL21(DE3); HisTrap and Superdex 200; homomeric decamer
T4 sequence (P15105 2-373 T301E): as the sequence (P15105 2-373 T301V) above, with V300E counted along it
As to the kind of experiment: gamma-glutamyl hydroxamate assay, absorbance […] nm. In kind it is biochemical.

Substrate in the data set “purified protein”: N[C@@H](CCC(=O)O)C(=O)O
As to the kind of experiment: purified protein. Format: biochemical, Mus musculus. The settings on record: unphosphorylated GS (PKA + PKI), 20 mM ATP, 20 mM hydroxylamine, 20 mM MgCl2, imidazole pH 7.4, room temperature.

Take `Nc1ncnc2c1ncn2[C@@H]1O[C@H](COP(=O)(O)OP(=O)(O)OP(=O)(O)O)[C@@H](O)[C@H]1O` [ATP]: in data set [1], the Tm result was “incubation with MgATP increased their melting temperatures to similar extents”.
As usually defined, the IC50 is the concentration that gives 50% inhibition. A high value points to weaker potency. As to `CS(=N)(=O)CC[C@H](N)C(=O)O` (stereo partly drawn) [methionine sulfoximine], the IC50 in data set [2] is 0.182 ± 0.014 mM; in data set [3] it was 7.6 ± 0.5 mM; in data set [4], greater than 100 mM; in data set [5], greater than 100 mM.

B1: Glutamine synthetase (GS) (Mus musculus) (protein)
chain: ATSASSHLNKGIKQMYMSLPQGEKVQAMYIWVDGTGEGLRCKTRTLDCEPKCVEELPEWNFDGSSTFQSEGSNSDMYLHPVAMFRDPFRKDPNKLVLCEVFKYNRKPAETNLRHICKRIMDMVSNQHPWFGMEQEYTLMGTDGHPFGWPSNGFPGPQGPYYCGVGADKAYGRDIVEAHYRACLYAGVKITGTNAEVMPAQWEFQIGPCEGIRMGDHLWIARFILHRVCEDFGVIATFDPKPIPGNWNGAGCHTNFSTKAMREENGLKCIEEAIDKLSKRHQYHIRAYDPKGGLDNARRLTGFHETSNINDFSAGVANRGASIRIPRTVGQEKKGYFEDRRPSANCDPYAVTEAIVRTCLLNETGDEPFQYKN
notes: pET-24a(+) plasmid pNG189, codon optimised; E. coli BL21(DE3); HisTrap and Superdex 200; homomeric decamer
A word on the Km: it is the substrate concentration at which the rate is half of its maximum. Turning to B1, in the data set “purified protein”, the Km was 21 ± 1 mM.

For the origin of these results see paper PMC6536897, “Phosphorylation of Glutamine Synthetase on Threonine 301 Contributes to Its Inactivation During Epilepsy” (Frontiers in Molecular Neuroscience, 2019).
